According to US20230310424A1, “METHODS AND MATERIALS FOR INCREASING NICOTINAMIDE PHOSPHORIBOSYL TRANSFERASE ACTIVITY” (University of Pittsburgh - Of the Commonwealth System of …, priority 2020, published 2023):

Test system: NAD^+ levels in cells
Experiment: Assay for Total NADH and NAD+ Measurements in Cells
Assay type: cell-based
Settings: cells incubated overnight with test compound; 100 percent = no change vs untreated control cells; cell type and concentration not given
Method: 2,000 cells/well and, at the same time, test compounds dissolved in media at the desired concentration were added to each well. The treated cells were incubated overnight in CO2 incubator. The cells were washed 6 times with PBS with 1 mM CaCl2 and 1 mM MgCl2. In the last wash, 10 μL of PBS with 1 mM CaCl2 and 1 mM MgCl2 per well were left in each well. Immediately thereafter, 10 μL 0.4% dodecyltrimethyl-ammonium bromide (DTAB) in phosphate buffer pH 8.0 as added, and the plates were shaked at 1000 rpm for 5 minutes. 60 μL reaction mix was added, and fluorescence at Ex/Em 530/585 was immediately monitored. A linear increase should be achieved with 8 cycles every 92 seconds, 10 number of flashes/well/cycle. The reaction mix was prepared per the following table, respecting the amount and order in which each component was added:
A percentage of 100 percent would indicate no increase or decrease in NAD^+ levels as compared to that measured for untreated control cells, while a percentage of 125 percent would indicate an increase in NAD^+ levels of 25 percent as compared to that measured for untreated control cells.

In the case of `CN1CCN(C(=O)c2ccc3nc(C(F)(F)F)c(-c4cccnc4)nc3c2)CC1` [BC19105], the “A: increase in NAD^+ levels in cells in response to the test compound, as the percent of NAD^+ levels compared to that in the absence of the test compound” value is reported as 105%.

For `CN1CCN(C(=O)c2ccc3nc(-c4cccs4)c(-c4ccc(F)cc4)nc3c2)CC1` [BC19109], the “A: increase in NAD^+ levels in cells in response to the test compound, as the percent of NAD^+ levels compared to that in the absence of the test compound” value was 111%.

For `CN1CCN(C(=O)c2ccc3nc(-c4ccc(F)cc4)c(C(F)(F)F)nc3c2)CC1` [BC19110], the “A: increase in NAD^+ levels in cells in response to the test compound, as the percent of NAD^+ levels compared to that in the absence of the test compound” value was 105%.

In the case of `Fc1ccc(-c2nc3cc(-c4nnn[nH]4)ccc3nc2C(F)(F)F)cc1` [BC19113], the “A: increase in NAD^+ levels in cells in response to the test compound, as the percent of NAD^+ levels compared to that in the absence of the test compound” value is reported as 110%.

With `NC(=O)c1ccc2nc(-c3ccc(F)cc3)c(C(F)(F)F)nc2c1` [BC19117] the “A: increase in NAD^+ levels in cells in response to the test compound, as the percent of NAD^+ levels compared to that in the absence of the test compound” value was 116%.

For `O=C(O)c1ccc2nc(-c3ccc(F)cc3)c(-c3ccc(F)cc3)nc2c1` [BC19118], the “A: increase in NAD^+ levels in cells in response to the test compound, as the percent of NAD^+ levels compared to that in the absence of the test compound” value was 108%.

`CNC(=O)c1ccc2nc(-c3cccs3)c(-c3ccc(F)cc3)nc2c1` [BC19119] was tested, and the “A: increase in NAD^+ levels in cells in response to the test compound, as the percent of NAD^+ levels compared to that in the absence of the test compound” value was 112%.

With `Fc1ccc(-c2nc3ccc(-c4nnn[nH]4)cc3nc2-c2ccc(F)cc2)cc1` [BC19144] the “A: increase in NAD^+ levels in cells in response to the test compound, as the percent of NAD^+ levels compared to that in the absence of the test compound” value was 107%.

For `Fc1ccc(-c2nc3ccc(-c4ncco4)cc3nc2-c2ccc(F)cc2)cc1` [BC19145], the “A: increase in NAD^+ levels in cells in response to the test compound, as the percent of NAD^+ levels compared to that in the absence of the test compound” value was 106%.

`CN1CCN(C(=O)c2ccc3nc(C(F)(F)F)c(-c4ccncc4)nc3c2)CC1` [BC19149] was tested, and the “A: increase in NAD^+ levels in cells in response to the test compound, as the percent of NAD^+ levels compared to that in the absence of the test compound” value was 106%.

`O=C(O)c1ccc2nc(-c3ccc(F)cc3)c(-c3cccs3)nc2c1` [BC19156] was tested, and the “A: increase in NAD^+ levels in cells in response to the test compound, as the percent of NAD^+ levels compared to that in the absence of the test compound” value was 105%.

For `Fc1ccc(-c2nc3cc(-c4nnn[nH]4)ccc3nc2-c2cccs2)cc1` [BC19186], the “A: increase in NAD^+ levels in cells in response to the test compound, as the percent of NAD^+ levels compared to that in the absence of the test compound” value was 105%.

With `NC(=O)c1ccc2nc(-c3ccc(F)cc3)c(-c3cccs3)nc2c1` [BC19187] the “A: increase in NAD^+ levels in cells in response to the test compound, as the percent of NAD^+ levels compared to that in the absence of the test compound” value was 113%.

In the case of `C#CCNC(=O)c1ccc2nc(-c3ccc(F)cc3)c(-c3cccs3)nc2c1` [BC19189], the “A: increase in NAD^+ levels in cells in response to the test compound, as the percent of NAD^+ levels compared to that in the absence of the test compound” value is reported as 109%.

`Cc1noc(-c2ccc3nc(-c4ccc(F)cc4)c(-c4ccc(F)cc4)nc3c2)n1` [BC19193] was tested, and the “A: increase in NAD^+ levels in cells in response to the test compound, as the percent of NAD^+ levels compared to that in the absence of the test compound” value was 109%.

For `CS(=O)(=O)c1ccc(-c2nc3ccc(-c4ncco4)cc3nc2-c2ccc(F)cc2)s1` [BC19248], the “A: increase in NAD^+ levels in cells in response to the test compound, as the percent of NAD^+ levels compared to that in the absence of the test compound” value was 125%.

For `Cc1cnc(-c2ccc3nc(-c4ccc(F)cc4)c(-c4cccs4)nc3c2)o1` [BC19249], the “A: increase in NAD^+ levels in cells in response to the test compound, as the percent of NAD^+ levels compared to that in the absence of the test compound” value was 119%.

For `Cn1cnnc1-c1ccc2nc(-c3ccc(F)cc3F)c(-c3ccccc3)nc2c1` [BC19444], the “A: increase in NAD^+ levels in cells in response to the test compound, as the percent of NAD^+ levels compared to that in the absence of the test compound” value was 112%.

In the case of `CN1CCN(C(=O)c2ccc3nc(-c4ccc(C#N)cc4)c(-c4ccc(C#N)cc4)nc3c2)CC1` [BC19446], the “A: increase in NAD^+ levels in cells in response to the test compound, as the percent of NAD^+ levels compared to that in the absence of the test compound” value is reported as 106%.

In the case of `C#CCNC(=O)c1ccc2nc(-c3cccc(N(C)C)c3)c(-c3cccc(N(C)C)c3)nc2c1` [BC19499], the “A: increase in NAD^+ levels in cells in response to the test compound, as the percent of NAD^+ levels compared to that in the absence of the test compound” value is reported as 165%.

In the case of `CN(C)c1cccc(-c2nc3ccc(C(=O)O)cc3nc2-c2cccc(N(C)C)c2)c1` [BC19500], the “A: increase in NAD^+ levels in cells in response to the test compound, as the percent of NAD^+ levels compared to that in the absence of the test compound” value is reported as 107%.

In the case of `CN(C)c1cccc(-c2nc3ccc(C(=O)NCCO)cc3nc2-c2cccc(N(C)C)c2)c1` [BC19502], the “A: increase in NAD^+ levels in cells in response to the test compound, as the percent of NAD^+ levels compared to that in the absence of the test compound” value is reported as 115%.

`COCCNC(=O)c1cnc2nc(-c3ccc(F)cc3)c(-c3ccc(F)cc3)nc2c1` [BC20200] was tested, and the “A: increase in NAD^+ levels in cells in response to the test compound, as the percent of NAD^+ levels compared to that in the absence of the test compound” value was 132%.

For `CN(C)CCNC(=O)c1cnc2nc(-c3ccc(F)cc3)c(-c3ccc(F)cc3)nc2c1` [BC20201], the “A: increase in NAD^+ levels in cells in response to the test compound, as the percent of NAD^+ levels compared to that in the absence of the test compound” value was 133%.

In the case of `C#CCNC(=O)c1cnc2nc(-c3ccc(F)cc3)c(-c3ccc(F)cc3)nc2c1` [BC20257], the “A: increase in NAD^+ levels in cells in response to the test compound, as the percent of NAD^+ levels compared to that in the absence of the test compound” value is reported as 130%.

For `C#CCNC(=O)c1ccc2nc(-c3cccc(NC(=O)CN(C)C)c3)c(-c3cccc(NC(=O)CN(C)C)c3)nc2c1` [BC20287], the “A: increase in NAD^+ levels in cells in response to the test compound, as the percent of NAD^+ levels compared to that in the absence of the test compound” value was 120%.
